Experiment in all cases: Eurofins kinase selectivity profile against 380 other human recombinant kinases (Table S2)
Common to all, as to format: biochemical

For assay [1], the target named is T1, 380 human recombinant protein kinases (Homo sapiens, UniProt Q05397).
T1 construct: purchased Eurofins (Celle Lévescault)
The conditions noted are these: FAK(h), read-out: Inhibition rate. The method in brief:
(§1)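 The inhibitor was sent to a contract lab and screened at various concentrations against 380 human recombinant protein kinases. This served as a counter-screen for MK2 specificity.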

For assay [2], the target named is T2, 380 human recombinant protein kinases (Homo sapiens, UniProt Q9HBY8).
T2 construct: purchased Eurofins (Celle Lévescault)
T2 sequence (Q9HBY8 1-367): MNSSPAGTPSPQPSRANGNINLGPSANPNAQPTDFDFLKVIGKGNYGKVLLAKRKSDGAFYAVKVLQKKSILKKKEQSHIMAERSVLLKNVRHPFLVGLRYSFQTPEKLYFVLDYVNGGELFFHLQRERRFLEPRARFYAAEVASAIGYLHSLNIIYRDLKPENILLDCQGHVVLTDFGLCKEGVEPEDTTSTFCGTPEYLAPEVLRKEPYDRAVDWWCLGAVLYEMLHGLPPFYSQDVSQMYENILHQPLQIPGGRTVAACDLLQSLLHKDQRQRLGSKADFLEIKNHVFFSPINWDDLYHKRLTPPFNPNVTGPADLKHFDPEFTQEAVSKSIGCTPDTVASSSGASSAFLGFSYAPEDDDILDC
The conditions noted are these: SGK2(h), read-out: Inhibition rate (%). The method in brief: as §1

For assay [3], the target named is T3, 380 human recombinant protein kinases (Homo sapiens, UniProt Q8NG66).
T3 construct: purchased Eurofins (Celle Lévescault)
T3 sequence (Q8NG66 1-645): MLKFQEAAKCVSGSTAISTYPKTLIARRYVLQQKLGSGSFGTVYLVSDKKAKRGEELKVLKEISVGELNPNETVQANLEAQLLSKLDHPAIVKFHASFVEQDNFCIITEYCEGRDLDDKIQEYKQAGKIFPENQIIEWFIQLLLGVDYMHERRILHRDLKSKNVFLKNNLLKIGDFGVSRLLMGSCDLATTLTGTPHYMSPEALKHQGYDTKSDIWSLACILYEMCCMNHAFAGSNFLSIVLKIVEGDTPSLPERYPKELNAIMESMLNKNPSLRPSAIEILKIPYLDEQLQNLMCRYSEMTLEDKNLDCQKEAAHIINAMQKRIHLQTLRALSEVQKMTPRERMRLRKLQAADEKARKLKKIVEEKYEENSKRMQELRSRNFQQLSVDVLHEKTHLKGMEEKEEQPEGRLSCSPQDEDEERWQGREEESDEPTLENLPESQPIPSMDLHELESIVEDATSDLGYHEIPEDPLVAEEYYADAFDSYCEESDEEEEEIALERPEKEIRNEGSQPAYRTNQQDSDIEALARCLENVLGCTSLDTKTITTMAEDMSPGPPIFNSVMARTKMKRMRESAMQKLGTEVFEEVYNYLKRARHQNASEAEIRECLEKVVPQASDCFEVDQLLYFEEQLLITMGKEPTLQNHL
As to conditions: NEK11(h), read-out: Inhibition rate. The method in brief:
as §1

The target of assay [4] is T4, 380 human recombinant protein kinases (Homo sapiens, UniProt P00519, Y253F).
T4 construct: purchased Eurofins (Celle Lévescault)
As to conditions: Abl(Y253F)(h), read-out: Inhibition rate. The gist of the method:
as §1

The target in assay [5] is T5, 380 human recombinant protein kinases (Homo sapiens, UniProt O14965).
T5 construct: purchased Eurofins (Celle Lévescault)
T5 sequence (O14965 1-403): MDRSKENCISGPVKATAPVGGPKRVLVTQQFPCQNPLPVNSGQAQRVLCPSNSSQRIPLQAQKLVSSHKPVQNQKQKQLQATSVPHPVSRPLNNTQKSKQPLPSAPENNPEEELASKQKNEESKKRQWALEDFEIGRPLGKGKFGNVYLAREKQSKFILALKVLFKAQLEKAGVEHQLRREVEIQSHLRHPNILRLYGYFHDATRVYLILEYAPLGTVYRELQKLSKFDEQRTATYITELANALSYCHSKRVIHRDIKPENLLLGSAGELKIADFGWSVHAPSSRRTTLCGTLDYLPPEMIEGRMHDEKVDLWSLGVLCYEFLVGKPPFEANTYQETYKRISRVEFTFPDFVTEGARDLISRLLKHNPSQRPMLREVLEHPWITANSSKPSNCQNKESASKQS
The conditions noted are these: Aurora-A(h), read-out: Inhibition rate. The method in brief: as §1

Assay [6] addresses T6, 380 human recombinant protein kinases (Homo sapiens, UniProt O00141).
T6 construct: purchased Eurofins (Celle Lévescault)
T6 sequence (O00141 1-431): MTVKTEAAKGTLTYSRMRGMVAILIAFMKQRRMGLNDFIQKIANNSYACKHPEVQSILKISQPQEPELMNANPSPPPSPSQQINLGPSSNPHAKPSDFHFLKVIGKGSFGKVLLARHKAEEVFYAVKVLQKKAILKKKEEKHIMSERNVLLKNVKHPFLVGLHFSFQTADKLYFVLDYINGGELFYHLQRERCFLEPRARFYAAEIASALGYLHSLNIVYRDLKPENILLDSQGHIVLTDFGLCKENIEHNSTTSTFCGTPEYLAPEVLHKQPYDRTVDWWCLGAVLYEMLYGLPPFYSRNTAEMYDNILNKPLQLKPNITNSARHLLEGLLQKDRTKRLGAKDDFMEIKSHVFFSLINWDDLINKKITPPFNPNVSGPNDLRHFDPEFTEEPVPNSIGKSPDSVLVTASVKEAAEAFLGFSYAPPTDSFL
As to conditions: SGK(h), read-out: Inhibition rate (%). The gist of the method: as §1

The target in assay [7] is T7, 380 human recombinant protein kinases (Homo sapiens, UniProt P22694).
T7 construct: purchased Eurofins (Celle Lévescault)
The conditions noted are these: PKAcβ(h), read-out: Inhibition rate. The method in brief:
as §1

The target in assay [8] is T8, 380 human recombinant protein kinases (Homo sapiens, UniProt Q96SB4).
T8 construct: purchased Eurofins (Celle Lévescault)
The conditions noted are these: SRPK1(h), read-out: Inhibition rate (%). The gist of the method: as §1

These results are taken from article PMC11233931, “Remodeling tumor‐associated macrophage for anti‐cancer effects by rational design of irreversible inhibition of mitogen‐activated protein kinase‐activated protein kinase 2” (MedComm, 2024).

As a reminder, the inhibition is the change of the read-out against control, counted positive when it falls.

Molecules are shown by their SMILES.

T8 sequence (Q96SB4 whole entry): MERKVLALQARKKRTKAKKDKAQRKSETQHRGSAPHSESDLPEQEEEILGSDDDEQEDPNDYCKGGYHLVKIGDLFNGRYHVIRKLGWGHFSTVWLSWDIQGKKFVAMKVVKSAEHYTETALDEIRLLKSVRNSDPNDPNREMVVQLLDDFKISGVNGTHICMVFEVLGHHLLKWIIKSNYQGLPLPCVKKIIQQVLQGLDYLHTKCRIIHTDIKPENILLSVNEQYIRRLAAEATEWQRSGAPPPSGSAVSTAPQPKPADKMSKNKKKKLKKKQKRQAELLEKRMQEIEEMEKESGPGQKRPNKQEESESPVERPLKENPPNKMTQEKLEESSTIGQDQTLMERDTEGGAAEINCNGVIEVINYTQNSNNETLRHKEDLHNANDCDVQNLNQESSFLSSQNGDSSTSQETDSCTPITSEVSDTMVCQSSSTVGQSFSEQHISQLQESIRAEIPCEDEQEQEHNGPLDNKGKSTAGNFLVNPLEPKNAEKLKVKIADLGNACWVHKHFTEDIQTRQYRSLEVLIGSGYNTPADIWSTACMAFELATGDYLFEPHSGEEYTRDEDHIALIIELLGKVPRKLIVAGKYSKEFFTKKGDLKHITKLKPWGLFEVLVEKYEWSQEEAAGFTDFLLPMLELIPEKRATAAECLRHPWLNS
T1 sequence (Q05397 whole entry): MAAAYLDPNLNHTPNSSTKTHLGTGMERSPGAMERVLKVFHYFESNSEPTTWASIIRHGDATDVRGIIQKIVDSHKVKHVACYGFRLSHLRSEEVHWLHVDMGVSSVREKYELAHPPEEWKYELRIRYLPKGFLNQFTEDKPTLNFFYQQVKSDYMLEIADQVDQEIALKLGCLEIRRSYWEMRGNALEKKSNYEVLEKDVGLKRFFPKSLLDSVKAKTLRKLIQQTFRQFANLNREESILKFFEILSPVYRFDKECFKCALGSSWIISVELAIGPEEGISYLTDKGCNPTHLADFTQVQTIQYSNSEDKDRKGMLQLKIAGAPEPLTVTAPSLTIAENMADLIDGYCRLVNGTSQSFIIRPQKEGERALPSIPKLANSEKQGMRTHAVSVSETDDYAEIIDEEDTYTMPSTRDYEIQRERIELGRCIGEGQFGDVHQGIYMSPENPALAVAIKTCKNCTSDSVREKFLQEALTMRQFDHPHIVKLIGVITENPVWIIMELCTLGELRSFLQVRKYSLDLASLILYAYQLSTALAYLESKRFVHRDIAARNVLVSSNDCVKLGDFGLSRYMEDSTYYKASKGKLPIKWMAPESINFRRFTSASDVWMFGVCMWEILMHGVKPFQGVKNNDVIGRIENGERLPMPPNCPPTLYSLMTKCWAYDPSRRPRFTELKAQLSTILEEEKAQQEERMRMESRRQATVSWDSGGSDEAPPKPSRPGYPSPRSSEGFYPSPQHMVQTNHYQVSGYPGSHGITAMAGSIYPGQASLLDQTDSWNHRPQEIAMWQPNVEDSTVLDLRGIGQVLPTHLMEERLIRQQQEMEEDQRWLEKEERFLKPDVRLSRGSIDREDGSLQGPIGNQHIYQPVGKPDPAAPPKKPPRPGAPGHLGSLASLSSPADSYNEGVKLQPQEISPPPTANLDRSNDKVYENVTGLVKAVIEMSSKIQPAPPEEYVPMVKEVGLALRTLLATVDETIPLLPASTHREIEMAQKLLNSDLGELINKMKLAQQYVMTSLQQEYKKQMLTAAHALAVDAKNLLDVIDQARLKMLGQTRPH

Take `C=CC(=O)Nc1cc(-c2cc(-c3cc4c([nH]3)CCNC4=O)ccn2)ccc1OC(F)(F)F` [compound 11]: the inhibition at 0.01 µM is -10% in assay [1] (10 nM); -10% in assay [2] (10 nM); -1% in assay [3] (10 nM); 0% in assay [4] (10 nM); -1% in assay [5] (10 nM); 0% in assay [6] (10 nM). In addition, the results for the inhibition at 0.01 µM in assay [7] (10 nM) and in assay [8] (10 nM) were -11% and 6%, respectively. In addition, the inhibition at 0.1 µM in assay [1] (100 nM) was -1%; in assay [2] (100 nM), -7%; in assay [3] (100 nM), 0%; in assay [4] (100 nM), 2%; in assay [5] (100 nM), 1%; in assay [6] (100 nM), 7%. Further, the inhibition at 0.1 µM was -4% in assay [7] (100 nM) and 13% in assay [8] (100 nM). Besides, the inhibition at 1 µM was 1% in assay [1] (1000 nM); 0% in assay [2] (1000 nM); -4% in assay [3] (1000 nM); 21% in assay [4] (1000 nM); 7% in assay [5] (1000 nM); 1% in assay [6] (1000 nM). The inhibition at 1 µM worked out at 5% in assay [7] (1000 nM) and 22% in assay [8] (1000 nM).
